Consider 58 compounds from PubChem BioAssay AID489027 (Sanford-Burnham Center for Chemical Genomics, 2010).

The structures appear in SMILES notation. Active and inactive are the calls of the source. The rule behind the calls is not given here.

The target in this test is UPR counterscreen luciferase reporter, luminescence. The test is described as follows: luciferase reporter activation, UPR counterscreen line – cell-based, luminescence, counter-screen for adaptive UPR activator project, dose response (AID 489027). On the technique in general: A reporter such as luciferase makes a cellular process visible.

Turning to `Cc1ccc(NC(=O)c2cc(S(=O)(=O)N(C)C)ccc2N2CCCC2)cc1S(=O)(=O)N(C)C`, the EC50 (as a rule, the concentration needed to bring the measured effect to its halfway point) is 19 µM.

On to `Cc1cc(NC(=O)/C(C#N)=C/c2ccc(-c3ccc(SC(F)F)cc3)o2)n(-c2ccccc2)n1`, for which the EC50 is > 80 µM (inactive).

As to `CCc1nn(-c2cc(Oc3cccc4ccccc34)nc(-c3ccccc3)n2)c(N)c1C#N`, the EC50 was > 80 µM (inactive).

As to `Cc1nc2cc(NC(=O)CSc3nc4c(C)cccc4cc3C#N)ccc2s1`, the EC50 is > 80 µM (inactive).

For `Cc1cc(C)c2c(c1)/C(=N/Nc1ccc(S(N)(=O)=O)cc1[N+](=O)[O-])CCC2`, the EC50 was > 80 µM (inactive).

`O=C1NC(=O)N(Cc2ccccc2Cl)C(=O)/C1=C/c1cccs1`: the EC50 is 13 µM.

`COc1ccc(C(=O)O/N=C/c2c(C(F)(F)F)nn(C)c2SCc2ccccc2Cl)cc1`: the EC50 result is “inactive”.

In the case of `CCOC(=O)c1c(NC(=O)CSc2nnc3c(n2)[nH]c2ccc(F)cc23)sc(C(C)=O)c1C`, the EC50 was 17.4 µM.

As for `CN(C)C(=O)CCc1ccc2c3c([nH]c2c1)[C@]1(CCc2ccccc2)[C@@H](C(=O)N2CCCCC2)C[C@H](CC(=O)NCCC2=CCCCC2)C(=O)N1CC3`, the EC50 result was “inactive”.

Regarding `CC(C)N(C(=O)[C@H]1C[C@H](CC(=O)NCC23CC4CC(CC(C4)C2)C3)C(=O)N2CCc3c([nH]c4ccc(Cl)cc34)[C@]12C)C(C)C`, the EC50 result was “inactive”.

Regarding `CCc1nc(N=Nc2c(O)[nH]c3ccccc23)c2c3c(sc2n1)CCC3`, the EC50 is 10.7 µM.

Take `COc1ccc2cc(C)c3nnc(SCC(=O)Nc4nc(-c5ccc(F)cc5)cs4)n3c2c1`: the EC50 was 13 µM.

As for `CCN(CC)c1ccc(/C=C/[N+](=O)[O-])cc1`, the EC50 is 11.3 µM.

Take `Cc1ccc2nc(Nc3nc(-c4ccccc4)cc(=O)[nH]3)nc(C)c2c1`: the EC50 is > 80 µM (inactive).

As for `CCCCNC(=O)c1ccc(Cn2c(=S)[nH]c3c([nH]c4ccc(OC)cc43)c2=O)cc1`, the EC50 is > 80 µM (inactive).

On to `COc1ccccc1-c1sc2cc3c(cc2c1-c1ccc(OCCN2CCCCC2)cc1)OCO3`, for which the EC50 is 17.7 µM.

For the compound `COc1ccc(-c2coc3cc4oc(=O)cc(-c5ccccc5)c4cc23)cc1F`, the EC50 entry was “inactive”.

`Cc1cc(C)c2c(c1)/C(=c1/sc3n(c1=O)CN(c1ccccc1)CN=3)C(=O)N2`: the EC50 is 10.5 µM.

Take `CCOC(=O)c1cc(NC(=O)c2ccc(Cl)cc2)c(=O)n2c1oc1ccc(Cl)cc12`: the EC50 was > 80 µM (inactive).

Consider `Cc1ccc2nsnc2c1NC(=O)c1ccc(-c2cc(Cl)ccc2Cl)o1`, for which the EC50 is > 80 µM (inactive).

Take `O=C(Nc1nc2ccccc2s1)c1cc2c(s1)-c1ccccc1OC2`: the EC50 entry was “inactive”.

On to `COc1cc(NC(=O)c2ccc(C)cc2C)ccc1NC(=O)c1cc2ccccc2o1`, for which the EC50 entry was “inactive”.

`COc1ccc2c(c1)[nH]c1c(=O)n(/N=C/C3C(C)C=C(C)CC3C)c(=O)[nH]c12` (stereo not drawn): the EC50 result is “inactive”.

As to `CCOC(=O)c1nnc(-c2ccc(C)cc2)nc1Oc1ccc(Cl)cc1Cl`, the EC50 is 13.1 µM.

With `Cn1nc(C(F)(F)F)c(/C=N/OC(=O)c2ccccc2)c1SCc1ccc(Cl)cc1`, the EC50 result was “inactive”.

Turning to `C/C(=N/NC(=O)c1ccc(C)s1)c1cccc(NC(=O)COc2ccc(Cl)cc2C)c1`, the EC50 was 20 µM.

`COc1cccc(-c2sc3ccccc3c2-c2ccc(OCCN(C)C)cc2)c1`: the EC50 was 12.6 µM.

As for `O=C(N/N=C/c1ccc(Cl)cc1)c1sccc1OCc1ccc(F)cc1`, the EC50 entry was “inactive”.

For the compound `CCN=C1S/C(=C\c2cn(CC(=O)NCc3ccco3)c3ccccc23)C(=O)N1CC`, the EC50 was > 80 µM (inactive).

On to `COc1cc(OC)c2c(-c3cccc(-c4ccc(CO)cc4)c3)cc(=O)oc2c1`, for which the EC50 is > 80 µM (inactive).

For `Cc1ccc(NC(=O)CSc2nc3ccccc3c3nc4ccccc4n23)cc1`, the EC50 is 6.26 µM.

Consider `Cc1cc(SCC(=O)c2ccc(O)c(O)c2)n2nc(C)c(-c3ccccc3)c2n1`, for which the EC50 was > 80 µM (inactive).

`Cc1ccc(O)c(NC(=S)NC(=O)Cc2ccc(Cl)cc2)c1`: the EC50 entry was “inactive”.

With `Cn1ncc(N=Cc2c(O)ccc3ccccc23)c1C(=O)Nc1cccc(Cl)c1`, the EC50 is > 80 µM (inactive).

Take `CCOc1ccc(-n2c(C)cc(C(=O)CCl)c2C)cc1`: the EC50 is 6.73 µM.

Regarding `O=C(CC1C[C@H](C(=O)N2CCCCC2)[C@@]2(CCc3ccccc3)c3[nH]c4ccccc4c3CCN2C1=O)NCCC1=CCCCC1` (stereo partly drawn), the EC50 result is “inactive”.

As for `Cc1ccc(-c2nnc(-c3ccc(NC(=O)Cc4cccs4)cc3)o2)cc1`, the EC50 was > 80 µM (inactive).

Regarding `COc1ccccc1CCNC(=O)C1CCN(c2nnc(C)c3c(C)n(-c4ccc(C)cc4)nc23)CC1`, the EC50 was 18.1 µM.

In the case of `CCc1nc(C)cn1S(=O)(=O)c1cc([N+](=O)[O-])ccc1Cl`, the EC50 was > 80 µM (inactive).

On to `O=C(Oc1ccc(F)cc1C(=O)/C=C/c1cccs1)c1cccc([N+](=O)[O-])c1`, for which the EC50 entry is “inactive”.

Consider `CCOC(=O)c1c(NC(=O)Cc2cccs2)sc(C(=O)NC2CCCCC2)c1C`, for which the EC50 is > 80 µM (inactive).

For the compound `COc1cccc(C(=O)Oc2cc3c4c(c2)C(C)=CC(C)(C)N4C(=O)C3=O)c1`, the EC50 is 15.7 µM.

On to `N#Cc1ccc(-c2ccc(Cl)cc2)nc1SCC(=O)c1cccc(Cl)c1`, for which the EC50 is 8.05 µM.

In the case of `NCCc1c(-c2ccccc2)n(-c2ccccc2)c2ccccc12`, the EC50 was 17.9 µM.

For the compound `Cc1c(NC(=O)CSc2ccc(Cl)cc2)cccc1-c1nc2cc(Cl)ccc2o1`, the EC50 was > 80 µM (inactive).

For `CCCNC(=O)c1c(N)n(-c2ccc3c(c2)OCO3)c2nc3ccccc3nc12`, the EC50 was > 80 µM (inactive).

For the compound `CCCCN1C(=O)C(=O)c2cc(Cl)ccc21`, the EC50 entry is “inactive”.

Regarding `C#CCOCCOCCOCCNc1nc(N2CCN(C(=O)CCCCCCCCCCNC(=O)[C@H](CCCCN)n3cc(C[C@@H](C)CC)nn3)CC2)nc(N2CCN(C(=O)CCCCCCCCCCNC(=O)[C@H](CCCN=C(N)N)n3cc(C[C@@H](C)CC)nn3)CC2)n1`, the EC50 is > 80 µM (inactive).

As for `Cc1ccc(NC(=O)COc2ccc(/C=C3/SC(=Nc4ccccc4)N(Cc4cccnc4)C3=O)cc2)cc1`, the EC50 was 19.6 µM.

For `Cc1nc(NC(=O)CSc2ccc(-c3nc4ccccc4[nH]3)cn2)sc1C`, the EC50 entry is “inactive”.

Consider `CCOc1cc(CNC(C)(C)CO)cc(Br)c1OCc1ccc(Cl)cc1Cl`, for which the EC50 is > 80 µM (inactive).

With `Cc1cccc(NC(=O)c2nc[nH]c2C(=O)Nc2ccccc2[N+](=O)[O-])c1`, the EC50 is > 80 µM (inactive).

Regarding `NS(=O)(=O)c1ccc(N/N=C/c2cn(-c3ccccc3)nc2-c2cccs2)c([N+](=O)[O-])c1`, the EC50 was > 80 µM (inactive).

In the case of `CCOc1cc(/C=N\Nc2ccc([N+](=O)[O-])cc2)ccc1OCC(=O)Nc1ccc(C)c(C)c1`, the EC50 is > 80 µM (inactive).

As to `Cc1ccc2c(c1)c(N=NC(N)=S)c(O)n2Cc1ccccc1`, the EC50 was > 80 µM (inactive).

With `Cc1cc(NC(=O)c2cncc(Br)c2)ccc1NC(=O)c1cc2ccccc2o1`, the EC50 was > 80 µM (inactive).

In the case of `Oc1ccc(CN2CCC(Cc3ccccc3)CC2)c2cccnc12`, the EC50 is 5.55 µM.

In the case of `CC(C)c1cccc(-c2ccc3c(c2)S(=O)(=O)c2cccc(C(=O)NCc4ccccc4Cl)c2C3=O)c1`, the EC50 was 7.24 µM.
